Experimental data as given in patent publication US20090075318A1, “USING PHOTO-RESPONSIVE SURFACTANTS TO REVERSIBLY CONTROL PROTEIN AGGREGATION WITH LIGHT ILLUMINATION” (University of Southern California, priority 2007, published 2009).
Where two headings read alike, the source gives them in different places.

How the values were obtained:
α-chymotrypsin [1] = target: T1, α-chymotrypsin (Bos taurus, UniProt P00766); assay: TEM of α-Ch/azoTAB solutions; design: species or system bovine; settings: two weeks (fresh solution) or approx. one year (SANS solution, pH 3, 4.2 mM azoTAB)
T1 construct: α-Ch results from the removal of two dipeptides at positions 14-15 and 147-148 in chymotrypsinogen; purchased Sigma C-4129 (lot # 105K7670); host or cells: bovine pancreas
Experimental: Transmission electron microscopy was performed on a Philips EM420 TEM operating at 80 kV. A drop of protein solution was placed on a carbon-coated grid for 10 seconds and then blotted with filter paper, followed by repeating this procedure with a second drop. The grid was then placed in a freshly made 1 wt % uranyl acetate solution for 30 s.

α-chymotrypsin [2] = target: T1, α-chymotrypsin; assay: Congo red staining, optical microscopy of α-Ch/azoTAB solution; design: species or system bovine; settings: α-Ch/azoTAB solution aged for five days
Experimental: Optical microscopy was performed on an Olympus IX71 inverted fluorescence microscope equipped using a 50× lens (Olympus, model SLCPlanFl) and a U-N41027 CAL CRIM C58158 filter cube (Chroma, model 058158). Images were recorded with a Hamamatsu digital CCD camera (model C4742-95). Aliquots (5-10 μL) of the protein-surfactant solution were deposited onto glass slides and dyed with an equal volume of a 400 μM Congo red aqueous solution.

α-chymotrypsin [3] = target: T1, α-chymotrypsin; assay: FT-IR secondary structure of α-Ch/azoTAB mixtures; design: species or system bovine; settings: addition of trans azoTAB to pure α-Ch, and UV exposure of α-Ch/azoTAB
Experimental: Infrared spectra were measured with a Genesis II FT-IR spectrometer (Mattson Instruments). Solutions were loaded in a demountable liquid cell equipped with a circulating water jacket (T=20° C.) between a pair of CaF2 windows using a 50 μm Teflon spacer. A liquid light guide (Oriel, model no. 77557) was used to directly illuminate the sample with UV or visible light for 2 hours prior to and during data collection, as previously described (9). The sample chamber was continuously purged with dry air to eliminate the influence of water vapor. For each spectrum, a 500-scan interferogram was collected with a 2 cm^−1 resolution. The relatively sharp surfactant peaks at ˜1600 cm^−1 were removed by subtracting the spectra measured for a pure surfactant solution under otherwise identical conditions, resulting in corrected spectra that were flat in the region between 2000 and 1750 cm^−1. Fourier self-deconvolution (FSD) was applied to spectra to resolve the overlapping bands in the Amide I region using a band-narrowing factor k=2.0 and a full width at half height of 12.6 cm^−1. Second derivative spectra were obtained with the Savitsky-Golay function for a 3rd order polynomial, using a 13 data point window. […] Difference spectra obtained for pure α-chymotrypsin solutions without surfactant shown no significant absorbance changes (<1% throughout the amide I region).

[4] = cited from earlier work
chymotrypsinogen-A = target: T2, chymotrypsinogen-A (Bos taurus, UniProt P00766); assay: SAXS of chymotrypsinogen-A/azoTAB solutions; design: species or system bovine
T2 construct: Chymotrypsinogen is the zymogen of α-chymotrypsin; purchased Worthington LS005630; host or cells: bovine pancreas
Experimental: The small-angle X-ray scattering data were measured using the X21 beamline at the National Synchrotron Light Source at the Brookhaven National Laboratory. (28) The X-ray wavelength was set to 1.24 Å with a pair of Si(111) monochromator crystals. The sample-to-detector distance was calibrated to be 1.69 m using a silver behenate standard. To avoid radiation damage, solutions were continuously passed at a flow rate of 60 μL/min through a 1-mm glass capillary housed within an aluminum block containing Plexiglas observation windows. (28) The net intensities were corrected for the background and solvent scattering as well as sample transmission, and were put on an absolute scale by comparison with a calibration standard (10 mg/mL BSA (10)).

α-chymotrypsin [5] = target: T1, α-chymotrypsin; assay: SANS of α-chymotrypsin/azoTAB solutions (Guinier, PDDF, shape reconstruction); design: species or system bovine
Experimental: Small-angle neutron scattering experiments were performed on the 30-m NG3 SANS instruments at NIST. (24) A neutron wavelength of λ=6 Å and a detector offset of 25 cm with two sample-detector distances of 1.33 and 7.0 m were utilized to achieve a Q range of 0.0048-0.46 Å^−1. The net intensities were corrected for the background and empty cell (pure D2O), accounting for the detector efficiency using the scattering from an isotropic scatterer (Plexiglas), and converted to an absolute differential cross section per unit sample volume (in units of cm^−1) using an attenuated empty beam. The data were then corrected for incoherent scattering by subtracting a constant background. The shape-reconstruction algorithm GA_STUCT (11) was used to generate solution conformations, similar to previous studies (10, 11). Beginning with an initial guess of randomly-distributed scattering centers, the program rearranges the position of the scattering centers to best fit the experimental scattering data.
The weight-average molecular weight (Mw) of each sample was calculated from the equation
where ρS and ρP are the scattering length densities of the solvent (6.36×10^10 cm^−2) and protein (3.23×10^10 cm^−2), respectively, c is the protein concentration (11.6 mg/mL at pH 3 and 11.4 mg/mL at pH 7), and υ is the protein specific volume (0.734 cm^3/g). (25) I(0)-values were determined from Guinier plots (25) using I(Q)=I(0)exp(−Q^2Rg^2/3), where Rg is the radius of gyration. Guinier plots, generally valid for QRg<1.3, can be influenced by solution structuring due to intermolecular interactions between charged proteins, which becomes increasingly important as Q decreases below 1.5/R (10) (or <0.05 Å^−1 using an α-Ch radius ˜30 Å). Thus, pair distance distribution functions were calculated from the SANS data using the program GNOM (26) according to the equation
where P(r) is related to the probability of two scattering centers (nuclei for SANS) being a distance r+dr apart, and Dmax is the maximum distance between scattering centers within the protein or protein oligomer. I(0)-values were then obtained from the PDDFs through I(0)=4π∫0^D^maxP(r)dr, which has the advantage of utilizing the entire Q-range to determine I(O), as opposed to just the low-Q values as in Guinier analysis (27).

fibril diameter (α-chymotrypsin [1]): ca. 10 nm | FT-IR change on association (α-chymotrypsin [3]): increase in peaks at 1612 and 1685 cm^−1 | Rg of chymotrypsinogen (Guinier) (chymotrypsinogen-A; 24 mM azoTAB, visible light, 10.0 mg/mL protein): 19.7 Å | increase in I(0) relative to the monomer data (chymotrypsinogen-A; UV light, 19 mM and 24 mM azoTAB): 12 fold | time for complete visible-light induced dissociation of UV-equilibrated samples (chymotrypsinogen-A; re-exposure to 434-nm visible light): several hours | I(0) (chymotrypsinogen-A; visible light): 0.2 to 0.25 cm⁻¹ | Rg from second Guinier slope (monomer) (α-chymotrypsin [5]; Q^2 ~0.01-0.03 Å^-2, α-Ch/azoTAB solutions, pH 3 and pH 7, visible and UV): 17.0-18.2 Å | type of protein self-association (α-chymotrypsin [5]; UV light (cis azoTAB)): monomer-dodecamer equilibrium | Dmax of oligomer (PDDF) (α-chymotrypsin [5]; UV light, dodecamer): ~160 Å | most probable dimension (PDDF peak) (α-chymotrypsin [5]; UV light, dodecamer): 40-50 Å | effective oligomer size n^eff reached with increasing surfactant concentration (α-chymotrypsin [5]; UV light, SANS and SAXS data): 12 | scaling exponent of Rg^n with oligomer Mw (α-chymotrypsin [5]; hexamer or dodecamer, compared to monomer Rg): 0.42±0.03 | increase in Rg with the addition of azoTAB (α-chymotrypsin [5]; monomer Rg, Table 1): 7% | type of protein self-association (α-chymotrypsin [5]; visible light (trans azoTAB)): monomer-hexamer equilibrium | Dmax of oligomer (PDDF) (α-chymotrypsin [5]; visible light, hexamer): ~120 Å
SMILES: CCc1ccc(/N=N/c2ccc(OCC[N+](C)(C)C)cc2)cc1 [azoTAB, azobenzene-trimethylammonium bromide surfactant]
Congo red staining result (α-chymotrypsin [2]): characteristic Congo red fluorescence as well as “apple green” birefringence | isomer ratio ([4]; 350-nm UV light): 90/10 | trans isomer ([4]; in the dark, about 24 hours): ~100% | isomer ratio ([4]; visible light, 434 nm): 75/25 | cis→trans isomerization kinetics ([4]; visible light): within minutes
